# Where two headings read alike, the source gives them in different places.
# What was measured:
# [1] = biological target: MBP-H-PGDS fusion enzyme (Homo sapiens, UniProt O60760); assay: MBP-H-PGDS fluorescence polarization (FP) displacement assay; format: binding; conditions: detection analyte Compound 20; mean ± spread, N in cell; read-out: MBP-H-PGDS FP Assay: test compound IC50
# Procedure: Detection analyte and H-PGDS-MBP fusion enzyme were incubated in the presence of reduced glutathione (5 mM) for 30-60 minutes at room temperature and FP was measured using a TECAN SAFIRE 2 plate reader equipped with absorbance, fluorescence, fluorescence polarization and FRET capabilities. Assays were performed in 96-well microtiter plates in 100 μL of total sample volume. Excitation and emission wavelengths appropriate for the employed detection analyte were used.
# H-PGDS-Maltose binding protein (MBP; 100 μl, 0.5 mg/ml) fusion (MBP-H-PGDS fusion) (FIG. 6) was diluted with 1×FP buffer (900 μL).
# Into a 50 mL conical tube was added the H-PGDS 1×FP buffer (18.65 mL), H-PGDS FP fluorescent probe—green (138 μL), MBP-H-PGDS fusion dilution (880 μL), and glutathione solution (1,250 μL).
# Assay cocktail (47.5 μL) was added to each plate well.
# Test compound solutions (2.5 μL) were added to the wells. […] The IC50 for a particular test compound was obtained by performing a full concentration titration versus a full concentration titration of positive control. Comparison of a single concentration of a test compound to the maximum binding well provided an assessment of the relative affinity of the test compound for MBP-H-PGDS.
# The plate was covered and incubated for 60-90 minutes at room temperature. The FP signal is stable for at least two hours.
# Plates were read with excitation and emission wavelengths of 470 nm and 530 nm (for detection analyte comprising the fluorescein fluorophore), respectively.
# fluorescence polarization of a molecule is defined as: Polarization (mP)=1,000×(Iparallel−Iperpendicular)/(Iparallel+Iperpendicular) where Iparallel is the parallel emission intensity measurement and Iperpendicular is the perpendicular emission intensity measurement.
# The clone was then transformed into the expression strain BL21 (DE3) star cells and a glycerol stock was generated. The expected size is 66.29 kDa.
# [2] = biological target: T1, H-PGDS (Homo sapiens, UniProt O60760); conditions: [1-14C]PGH2 to [1-14C]PGD2, RIA; Aritake et al. 2006; read-out: Reported H-PGDS inhibition IC50; cited from earlier work
# T1 sequence (O60760 whole entry, species assumed): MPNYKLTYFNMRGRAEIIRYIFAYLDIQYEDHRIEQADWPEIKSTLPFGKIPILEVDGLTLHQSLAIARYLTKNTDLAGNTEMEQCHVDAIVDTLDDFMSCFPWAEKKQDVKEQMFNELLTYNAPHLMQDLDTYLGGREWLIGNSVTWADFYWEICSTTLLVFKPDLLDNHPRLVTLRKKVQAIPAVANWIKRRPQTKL
# [3] = biological target: T1, H-PGDS; conditions: order of magnitude in words; cited from earlier work
# [4] = tested on: PGD2 levels in guinea pig lung tissues; conditions: chronic treatment; Matsushita et al. 1998; cited from earlier work
# [5] = biological target: T1, H-PGDS; conditions: Taiho poster / patent application, method not stated; read-out: Reported H-PGDS inhibition IC50; cited from earlier work
# [6] = biological target: T1, H-PGDS; conditions: GSH-MCB conjugation, fluorometry; Evotec WO 2008/122787, AstraZeneca J. Med. Chem. 2008; read-out: Reported H-PGDS inhibition IC50; cited from earlier work
# Sequence of MBP-H-PGDS fusion enzyme (O60760 2-199, looked up): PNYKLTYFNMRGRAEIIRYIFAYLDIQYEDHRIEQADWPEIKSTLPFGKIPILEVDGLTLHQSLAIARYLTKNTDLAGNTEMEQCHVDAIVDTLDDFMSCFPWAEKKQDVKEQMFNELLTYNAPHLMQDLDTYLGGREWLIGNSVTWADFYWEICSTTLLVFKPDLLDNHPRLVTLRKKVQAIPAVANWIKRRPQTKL
Structure (SMILES),IC50 [1] [nM],other results
O=C(NCc1ccccc1)c1cnc(-c2ccccc2)nc1,125,–
c1ccc(C(OC2CCN(CCCc3nnn[nH]3)CC2)c2ccccc2)cc1,15000,IC50 [2]: 6000 nM; IC50 against H-PGDS in known in vitro assays [3]: micromolar; PGD2 levels in guinea pig lung tissues [4]: reduce PGD2 levels
Cc1ccc2nc(NC(=O)N3CCN(C(=O)c4cccc(F)c4)CC3)sc2c1,308 ± 11,IC50 [6]: 1 to 10 nM
c1ccc(-c2ncc(-c3cc[nH]n3)s2)cc1,438 ± 265,–
O=C(NCCNc1ccccc1)c1cnc(-c2ccccc2)nc1 [2-phenyl-N-(2-(phenylamino)ethyl)pyrimidine-5-carboxamide],375 ± 180,–
O=C(c1cnc(-c2ccccc2)nc1)N1CCNCC1 [(2-phenylpyrimidin-5-yl)(piperazin-1-yl)methanone],250000,–
"NCCNS(=O)(=O)c1cccc(CNC(=O)c2cnc(-c3ccccc3)nc2)c1 [Compound 19, N-(3-(N-(2-aminoethyl)sulfamoyl)benzyl)-2-phenylpyrimidine-5-carboxamide]",200 to 300,–
"COc1ccc(CNC(=O)c2ccc(-c3ccccc3)nc2)cc1OC [N-(3,4-dimethoxybenzyl)-6-phenylnicotinamide]",575 ± 460,–
Cc1nc(-c2cccc(F)c2)sc1C(=O)NCc1ccccc1 [N-benzyl-2-(3-fluorophenyl)-4-methylthiazole-5-carboxamide],900 ± 140,–
COc1ccc(/C=C/C(=O)Nc2ccccc2C(=O)O)cc1OC [Tranilast],–,IC50 against H-PGDS in known in vitro assays [3]: micromolar

# Further compounds by falling IC50 [1], results first:
IC50 [1] [nM],Structure (SMILES),other results
50 ± 14,O=C(NC1CCN(Cc2ccccc2)CC1)c1cnc(-c2ccccc2)nc1,–
38 ± 11,O=C(Nc1ccc(N2CCOCC2)cc1)c1cnc(Oc2ccccc2)nc1,IC50 [5]: 190 nM
30,O=C(NC1CCN(Cc2ccccc2)CC1)c1ccc(-c2ccccc2)nc1,–
30,O=C(NC1CCN(Cc2ccccc2)CC1)c1ccc(-c2cccc(F)c2)nc1,–
25 ± 7,Cc1[nH]c(C(=O)CCCc2ccccn2)c(C)c1-c1nc2cc(C(=O)c3ccccc3)ccc2[nH]1,IC50 [5]: 72 nM

# From patent US8440417B2, “Method for assaying compounds or agents for ability to displace potent ligands of hematopoietic prostaglandin D synthase” (Cayman Chemical Company, Incorporated, priority 2008, dated 2013)
